Test results reported in patent publication US9862680B2, “Peripherally substituted monocyclic beta-lactams” (University of Notre Dame du Lac, priority 2016, dated 2018).

Legend:
[1] = tested on: M. Vaccae IMET 10670; assay: Agar diffusion assay (modified Kirby-Bauer); type: cell-based; settings: 2 mM solution, 50 μL in 9.0 mm well, 48 hours incubation, P unclear, V very unclear zone, * slightly misshapen zone
Experimental: (§1) Antibacterial activity of the compounds was determined by a modified Kirby-Bauer^27-28 agar-diffusion assay. Overnight cultures of test organisms were grown in LB broth for 18-24h and standard suspensions of […] were prepared in saline solution (0.9% NaCl) according to a 0.5 BaSO4 McFarland Standard. This standardized suspension (0.1 mL) was added to 34 mL of sterile, Mueller Hinton No. 2 agar tempered to 47-50° C. After gentle mixing, the inoculated agar media was poured into a sterile plastic petri dish (145 mm×20 mm) and allowed to solidify near a flame with the lid cracked for 30 min. Wells of 9.0 mm diameter were cut from the petri dish agar and filled with exactly 50 μL of the test sample solution. For studies using mixtures of compounds, both test compounds were diluted to equal concentrations and 50 μL of the mixed compound solution was added to the cut well. The petri dish was incubated at 37° C. for 18-24 h and the inhibition zone diameters were measured (mm) with an electronic caliper after 24-48 h.
(§2) All compound-containing solutions were prepared by first making a 20 mM solution of the compound in DMSO and then diluting that solution 10-fold with MeOH to give the final 2 mM solution used in the assay.
(§3) Plates were incubated after inoculation at 37° C. for 20 hours. Plates were photographed after 1 day. M. vaccae required a longer incubation time, 48 hours, and was photographed after 3 days.

[2] = tested on: E. Coli DC0; assay: Agar diffusion assay (modified Kirby-Bauer); type: cell-based; settings: 2 mM solution, 50 μL in 9.0 mm well, P unclear, V very unclear zone, * slightly misshapen zone
Experimental: as §1, §2, §3

[3] = tested on: M. Luteus ATCC 10240; assay: Agar diffusion assay (modified Kirby-Bauer); type: cell-based
Experimental: as §1, §2, §3

[4] = tested on: B. Subtilis ATCC 6633; assay: Agar diffusion assay (modified Kirby-Bauer); type: cell-based; settings: 50 μL in 9.0 mm well, P unclear, V very unclear zone, * slightly misshapen zone; for Zone of Growth Inhibition: 2 mM solution
Experimental: as §1, §2, §3

[5] = tested on: E. Coli DC2; assay: Agar diffusion assay (modified Kirby-Bauer); type: cell-based; settings: E. Coli DC2, 2 mM solution, 50 μL in 9.0 mm well, P unclear, V very unclear zone, * slightly misshapen zone
Experimental: as §1, §2, §3

[6] = tested on: P. Aeruginosa K799/61; assay: Agar diffusion assay (modified Kirby-Bauer); type: cell-based; settings: P. Aeruginosa K799/61 (permeability mutant); 2 mM solution, 50 μL in 9.0 mm well; P unclear, V very unclear zone, * slightly misshapen zone
Experimental: as §1, §2, §3

[7] = tested on: A. Baumannii ATCC 17961; assay: Agar diffusion assay (modified Kirby-Bauer); type: cell-based; settings: 50 μL in 9.0 mm well, P unclear, V very unclear zone, * slightly misshapen zone; for Zone of Growth Inhibition: 2 mM solution
Experimental: as §1, §2, §3

[8] = tested on: B. Dolosa AU 0018; assay: Agar diffusion assay (modified Kirby-Bauer); type: cell-based; settings: 2 mM solution, 50 μL in 9.0 mm well, P unclear, V very unclear zone, * slightly misshapen zone
Experimental: as §1, §2, §3

[9] = tested on: S. Aureus SG511; assay: Agar diffusion assay (modified Kirby-Bauer); type: cell-based; settings: 2 mM solution, 50 μL in 9.0 mm well, P unclear, V very unclear zone, * slightly misshapen zone
Experimental: as §1, §2, §3

[10] = tested on: P. Aeruginosa K799/wt; assay: Agar diffusion assay (modified Kirby-Bauer); type: cell-based; settings: P. Aeruginosa K799/wt (wild type); 2 mM solution, 50 μL in 9.0 mm well; P unclear, V very unclear zone, * slightly misshapen zone
Experimental: as §1, §2, §3

[11] = tested on: panel of Gram-positive and Gram-negative bacteria; assay: MIC determination; type: cell-based; settings: same panel of Gram-positive and Gram-negative bacteria, all values
[12] = tested on: panel of Gram-positive and Gram-negative bacteria; assay: Kirby-Bauer agar diffusion assays, results in words; type: cell-based
Experimental: as §1, §2, §3

[13] = biological target: PAM 2035; assay: β-lactamase inhibition, Ki by enzyme kinetics; type: biochemical; settings: PAM 2035, class C
[14] = biological target: T1, NDM-1 (Klebsiella pneumoniae, UniProt C7C422); assay: β-lactamase inhibition, Ki by enzyme kinetics (imipenem); type: biochemical; settings: NDM-1, class B
T1 construct: purchased Emerald Bioscience
T1 sequence (C7C422 29-270 limits assumed): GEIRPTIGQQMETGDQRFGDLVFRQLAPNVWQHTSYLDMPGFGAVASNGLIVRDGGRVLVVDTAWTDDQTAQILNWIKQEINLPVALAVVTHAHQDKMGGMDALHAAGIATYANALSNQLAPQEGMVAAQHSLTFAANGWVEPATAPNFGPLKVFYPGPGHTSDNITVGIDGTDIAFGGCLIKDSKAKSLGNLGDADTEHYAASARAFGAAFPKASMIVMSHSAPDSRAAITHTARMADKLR
Experimental: (§4) The enzymes KPC-2, Oxa-48, AmpC and NDM-1 were purchased from Emerald Bioscience and the enzymes CTX-14 and SHV-12 were expressed and purified from E. coli at Rempex pharmaceutical (San Diego, Calif.).
(§5) To the first row of a 2-mL deep 96-well block was added 1 mL of 50 mM sodium phosphate buffer at pH 7 with 0.1 mg/mL BSA (bovine serum albumin). To the first row was added an appropriate amount of a 10 mg/mL solution of the compound to be tested to make a 640 μM (4×) solution. Each of the other wells in the 96-well block were charged with 750 μL of the aforementioned buffer. The rows were then repeatedly diluted 1:3 so that the final concentrations of the individual 96-well plates would range in concentrations from 160 μM to 3 nM (8 dilutions). The master block was then used to add 50 pt to each corresponding well in the 96-well flat-bottom plate. An additional 50 of buffer was added to each well. Once the plates were prepared, 50 μL of the enzyme to be tested against were added in buffer to each well [KPC-2 (0.147 mg/mL), CTX-M-14 (0.102 mg/mL), […] (0.331 mg/mL), AmpC (0.699 mg/mL), SHV-12 (0.111 mg/mL), NDM-1 (0.110 mg/mL)]. The plates were incubated at rt for 10 min before 50 μL. of an appropriate indicator were added to each well and the optical density at 495 nm was measured over time. For each enzyme, other than NDM-1, nitrocefin was used. Nitrocefin (10 μM for SHV-12, 50 μM for the other enzymes), was appropriate because when cleaved by a β-lactamase, the color changes from yellow to red. For NDM-1, imipenem (10 μM) was the indicator of choice. Rather than observe the growing presence of optical density at 495 nm, as with nitrocefin, the disappearance of imipenem was monitored. The inhibition curves were monitored and used to perform enzyme kinetics according to Waley to determine the Ki (μM) of each compound against the β-lactamases screened.

[15] = biological target: T2, Oxa-48 (Klebsiella pneumoniae, UniProt Q6XEC0); assay: β-lactamase inhibition, Ki by enzyme kinetics (nitrocefin); type: biochemical; settings: Oxa-48, class D
T2 construct: purchased Emerald Bioscience
T2 sequence (Q6XEC0 23-265 limits assumed): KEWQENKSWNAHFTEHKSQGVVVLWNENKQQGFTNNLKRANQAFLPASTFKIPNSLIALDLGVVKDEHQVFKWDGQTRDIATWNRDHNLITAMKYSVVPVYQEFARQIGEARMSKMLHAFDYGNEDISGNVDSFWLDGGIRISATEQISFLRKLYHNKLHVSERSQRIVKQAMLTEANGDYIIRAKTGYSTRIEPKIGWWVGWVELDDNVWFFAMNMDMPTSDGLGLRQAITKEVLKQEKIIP
Experimental: as §4, §5

[16] = biological target: T3, SHV-12 (Klebsiella pneumoniae, UniProt P0AD64, E235K/G234S/L31Q); assay: as above; type: biochemical; settings: SHV-12, class A
T3 construct: host or cells: E. coli
T3 sequence (P0AD64 22-286 L31Q/G234S/E235K): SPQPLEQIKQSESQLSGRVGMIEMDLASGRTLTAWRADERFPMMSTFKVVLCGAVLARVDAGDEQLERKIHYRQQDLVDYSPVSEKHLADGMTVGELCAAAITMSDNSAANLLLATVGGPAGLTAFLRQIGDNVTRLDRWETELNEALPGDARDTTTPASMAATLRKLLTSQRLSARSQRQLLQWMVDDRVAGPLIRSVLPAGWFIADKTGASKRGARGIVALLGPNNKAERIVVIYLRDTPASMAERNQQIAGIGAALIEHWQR
Experimental: as §4, §5

[17] = biological target: AmpC; assay: as above; type: biochemical; settings: class C
Experimental: as §4, §5

[18] = biological target: T4, KPC-2 (Klebsiella pneumoniae, UniProt Q9F663); assay: as above; type: biochemical; settings: KPC-2, class A
T4 construct: purchased Emerald Bioscience
T4 sequence (Q9F663 25-293 limits assumed): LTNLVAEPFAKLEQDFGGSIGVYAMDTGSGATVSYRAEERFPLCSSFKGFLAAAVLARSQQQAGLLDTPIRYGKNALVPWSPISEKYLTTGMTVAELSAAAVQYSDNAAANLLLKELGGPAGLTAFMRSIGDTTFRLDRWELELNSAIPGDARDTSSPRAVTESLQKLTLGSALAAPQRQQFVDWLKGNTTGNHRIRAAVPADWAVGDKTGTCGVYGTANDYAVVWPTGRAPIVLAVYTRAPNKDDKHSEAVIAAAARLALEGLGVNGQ
Experimental: as §4, §5

[19] = biological target: T5, CTX-M-14 (Escherichia coli, UniProt Q9L5C7); assay: as above; type: biochemical; settings: CTX-M-14, class A
T5 construct: host or cells: E. coli
T5 sequence (Q9L5C7 entry or part of it): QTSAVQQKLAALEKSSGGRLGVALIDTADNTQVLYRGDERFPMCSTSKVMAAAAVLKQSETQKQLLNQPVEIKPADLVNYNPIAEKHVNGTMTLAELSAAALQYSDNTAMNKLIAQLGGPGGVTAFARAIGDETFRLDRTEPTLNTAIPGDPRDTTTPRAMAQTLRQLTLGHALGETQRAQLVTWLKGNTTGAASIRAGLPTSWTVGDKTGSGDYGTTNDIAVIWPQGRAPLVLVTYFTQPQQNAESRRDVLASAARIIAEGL
Experimental: as §4, §5

[20] = M. Luteus ATCC 10240, 2 mM solution, 50 μL in 9.0 mm well, P unclear, V very unclear zone, * slightly misshapen zone
[21] = Escherichia coli, read-out: Zone of Growth Inhibition

Row | Structure (SMILES) | Zone of Growth Inhibition [1] | Zone of Growth Inhibition [2] [mm] | Zone of Growth Inhibition [3, 20] | Zone of Growth Inhibition [4] [mm] | Zone of Growth Inhibition [5] | Zone of Growth Inhibition [6] | Zone of Growth Inhibition [7] | Zone of Growth Inhibition [8] [mm] | Zone of Growth Inhibition [9] | Zone of Growth Inhibition [10] | also measured
1 | Cc1ccc(S(=O)(=O)ON2C(=O)CC2CBr)cc1 (stereo not shown) [Compound 61g] | 19V | 0 | 16P | 0 | 0 mm | 0 mm | 13.5 mm | 0 | 18V | 0 mm | 
2 | O=C1CC(CBr)N1OS(=O)(=O)c1ccc([N+](=O)[O-])cc1[N+](=O)[O-] (stereo not shown) [Compound 61f] | 28 mm | 0 | 18P | 22 | 16P | 0 mm | 16V | 0 | 21P | 0 mm | 
3 | O=C1CC(CBr)N1OS(=O)(=O)c1ccc([N+](=O)[O-])cc1 (stereo not shown) [Compound 61e] | 0 mm | 0 | 0 mm |  | 0 mm | 12.6* mm | 0 mm | 0 | 0 mm | 0 mm | 
4 | CN(C)c1cccc2c(S(=O)(=O)ON3C(=O)CC3CBr)cccc12 (stereo not shown) [Compound 61h] |  | 0 |  |  | 0 mm | 0 mm | 0 mm | 0 | 15* mm | 0 mm | 
5 | CO/N=C(\C(=O)N[C@@H]1C(=O)N(S(=O)(=O)[O-])[C@H]1CSCCNC(=O)OC(C)(C)C)c1cnc(N)s1.[K+] [Compound 43] |  |  |  |  |  |  |  |  |  | 0ppt | MIC [11]: > 50 µM; zone of inhibition at 2000 µM ([1]; Mycolicibacterium vaccae, read-out: Zone of Growth Inhibition): 0 mm; zone of inhibition at 2000 µM [2, 21]: 0 mm; zone of inhibition at 2000 µM ([3]; Micrococcus luteus, ATCC10240, M. Luteus ATCC 10240, 2 mM solution, 50 μL in 9.0 mm well, P unclear, V very unclear zone, * slightly misshapen zone, read-out: Zone of Growth Inhibition): 0 mm; zone of inhibition at 2000 µM ([4]; Bacillus subtilis, ATCC6633, 2 mM solution, read-out: Zone of Growth Inhibition): 18 mm; zone of inhibition at 2000 µM [5, 21]: 29 mm; zone of inhibition at 2000 µM ([7]; Acinetobacter baumannii, ATCC17961, 2 mM solution, read-out: Zone of Growth Inhibition): 0 mm; zone of inhibition at 2000 µM ([8]; Burkholderia dolosa, read-out: Zone of Growth Inhibition): 0 mm; zone of inhibition at 2000 µM ([9]; Staphylococcus aureus, read-out: Zone of Growth Inhibition): 0 mm; antibacterial activity ([12]; against B. subtilis and the permeability mutant forms of P. aeruginosa and E. coli): moderate activity; antibacterial activity ([12]; corresponding wild strains of P. aeruginosa and E. coli): inactivity
6 | CC(C)(ON=C(C(=O)NC1C(=O)N(S(=O)(=O)[O-])C1CSCCN)c1cnc(N)s1)C(=O)O.[K+] (racemic) [Compound 48] | 0 mm | 26 | 26P | 0 | 28 mm |  | 12P | 15 | 0 mm | 18P | antibacterial activity ([3]; on the Gram-positive M. luteus): very interesting activity; antibacterial activity against Gram-negative bacteria ([12]; agar diffusion, Gram-negative bacteria): very interesting activity
7 | CC(C)c1cc(C(C)C)c(S(=O)(=O)ON2C(=O)CC2CBr)c(C(C)C)c1 (stereo not shown) [Compound 61d] |  | 0 |  |  | 0 mm | 0 mm | 0 mm | 0 |  | 0 mm | Ki [13]: > 160 µM; Ki [14]: > 160 µM; Ki [15]: > 160 µM; Ki [16]: > 160 µM; Ki [17]: > 160 µM; Ki [18]: > 160 µM; Ki [19]: > 160 µM
8 | COC(=O)CSCC1C(NC(=O)Cc2ccccc2)C(=O)N1S(=O)(=O)[O-].[K+] (racemic) [Compound 29] |  |  |  |  |  |  |  |  |  |  | antibacterial activity ([12]; agar diffusion, overall): did not show any activity
